# Data as given in ChEMBL document CHEMBL2311467, “Microwave-assisted synthesis of pyrimido[4,5-b][1,6]naphthyridin-4(3H)-ones with potential antitumor activity” (Eur J Med Chem, 2013).
# What was measured:
# A498 = assay: Cytotoxicity against human A498 after 48 hrs by SRB assay; assay type: functional; conditions: A498, 48 h
# NCI-H522 = assay: Cytotoxicity against human NCI-H522 after 48 hrs by SRB assay; assay type: functional; conditions: NCI-H522, 48 h
# CAKI-1 = assay: Cytotoxicity against human CAKI-1 after 48 hrs by SRB assay; assay type: functional; conditions: CAKI-1, 48 h
# SK-MEL-28 = assay: Cytotoxicity against human SK-MEL-28 after 48 hrs by SRB assay; assay type: functional; conditions: SK-MEL-28, 48 h
# MCF7 = assay: Cytotoxicity against human MCF7 after 48 hrs by SRB assay; assay type: functional; conditions: MCF7, 48 h
# KM12 = assay: Cytotoxicity against human KM12 after 48 hrs by SRB assay; assay type: functional; conditions: KM12, 48 h
# Malme-3M = assay: Cytotoxicity against human MALME-3M after 48 hrs by SRB assay; assay type: functional
# SNB-75 = assay: Cytotoxicity against human SNB75 after 48 hrs by SRB assay; assay type: functional; conditions: SNB-75, 48 h
# SF-295 = assay: Cytotoxicity against human SF295 after 48 hrs by SRB assay; assay type: functional; conditions: SF-295, 48 h
# MDA-MB-435 = assay: Cytotoxicity against human MDA-MB-435 after 48 hrs by SRB assay; assay type: functional; conditions: MDA-MB-435, 48 h
# NCI-H322M = assay: Cytotoxicity against human NCI-H322M after 48 hrs by SRB assay; assay type: functional
# A549 = assay: Cytotoxicity against human A549 after 48 hrs by SRB assay; assay type: functional; conditions: A549, 48 h
# MDA-MB-468 = assay: Cytotoxicity against human MDA-MB-468 after 48 hrs by SRB assay; assay type: functional; conditions: MDA-MB-468, 48 h
# HOP-92 = assay: Cytotoxicity against human HOP92 after 48 hrs by SRB assay; assay type: functional; conditions: HOP-92, 48 h
# 786-0 = assay: Cytotoxicity against human 786-0 after 48 hrs by SRB assay; assay type: functional; conditions: 786-0, 48 h
# HCT-116 = assay: Cytotoxicity against human HCT116 after 48 hrs by SRB assay; assay type: functional; conditions: HCT-116, 48 h
# U-251 = assay: Cytotoxicity against human U251 after 48 hrs by SRB assay; assay type: functional; conditions: U-251, 48 h
# [1] = Cytotoxicity against human HL-60(TB) after 48 hrs by SRB assay; assay type: functional; conditions: HL-60, 48 h
# SF-268 = assay: Cytotoxicity against human SF268 after 48 hrs by SRB assay; assay type: functional; conditions: SF-268, 48 h
# HCT-15 = assay: Cytotoxicity against human HCT15 after 48 hrs by SRB assay; assay type: functional; conditions: HCT-15, 48 h
# NCI-H23 = assay: Cytotoxicity against human NCI-H23 after 48 hrs by SRB assay; assay type: functional; conditions: NCI-H23, 48 h
# OVCAR-3 = assay: Cytotoxicity against human OVCAR3 after 48 hrs by SRB assay; assay type: functional; conditions: OVCAR-3, 48 h
# SR = assay: Cytotoxicity against human SR after 48 hrs by SRB assay; assay type: functional
# SN12C = assay: Cytotoxicity against human SN12C after 48 hrs by SRB assay; assay type: functional
# MDA-MB-231 = assay: Cytotoxicity against human MDA-MB-231 after 48 hrs by SRB assay; assay type: functional; conditions: MDA-MB-231, 48 h
# [2] = Cytotoxicity against human EKVX after 48 hrs by SRB assay; assay type: functional
# DU-145 = assay: Cytotoxicity against human DU145 after 48 hrs by SRB assay; assay type: functional; conditions: DU-145, 48 h
# T47D = assay: Cytotoxicity against human T47D after 48 hrs by SRB assay; assay type: functional
# TK-10 = assay: Cytotoxicity against human TK10 after 48 hrs by SRB assay; assay type: functional; conditions: TK-10, 48 h
# UACC-257 = assay: Cytotoxicity against human UACC257 after 48 hrs by SRB assay; assay type: functional; conditions: UACC-257, 48 h
# OVCAR-5 = assay: Cytotoxicity against human OVCAR5 after 48 hrs by SRB assay; assay type: functional; conditions: OVCAR-5, 48 h
# SNB-19 = assay: Cytotoxicity against human SNB19 after 48 hrs by SRB assay; assay type: functional; conditions: SNB-19, 48 h
# HOP-62 = assay: Cytotoxicity against human HOP62 after 48 hrs by SRB assay; assay type: functional; conditions: HOP-62, 48 h
# SK-MEL-2 = assay: Cytotoxicity against human SK-MEL-2 after 48 hrs by SRB assay; assay type: functional; conditions: SK-MEL-2, 48 h
# UO-31 = assay: Cytotoxicity against human UO31 after 48 hrs by SRB assay; assay type: functional; conditions: UO-31, 48 h
# NCI-H460 = assay: Cytotoxicity against human NCI-H460 after 48 hrs by SRB assay; assay type: functional; conditions: NCI-H460, 48 h
# OVCAR-4 = assay: Cytotoxicity against human OVCAR4 after 48 hrs by SRB assay; assay type: functional; conditions: OVCAR-4, 48 h
# BT-549 = assay: Cytotoxicity against human BT549 after 48 hrs by SRB assay; assay type: functional; conditions: BT-549, 48 h
# NCI-H226 = assay: Cytotoxicity against human NCI-H226 after 48 hrs by SRB assay; assay type: functional; conditions: NCI-H226, 48 h
# HT-29 = assay: Cytotoxicity against human HT-29 after 48 hrs by SRB assay; assay type: functional; conditions: HT-29, 48 h
# UACC-62 = assay: Cytotoxicity against human UACC62 after 48 hrs by SRB assay; assay type: functional; conditions: UACC-62, 48 h
# OVCAR-8 = assay: Cytotoxicity against human OVCAR8 after 48 hrs by SRB assay; assay type: functional; conditions: OVCAR-8, 48 h
# Hs-578T = assay: Cytotoxicity against human Hs578T after 48 hrs by SRB assay; assay type: functional
# SW-620 = assay: Cytotoxicity against human SW620 after 48 hrs by SRB assay; assay type: functional; conditions: SW-620, 48 h
# ACHN = assay: Cytotoxicity against human ACHN after 48 hrs by SRB assay; assay type: functional
# M14 = assay: Cytotoxicity against human M14 after 48 hrs by SRB assay; assay type: functional; conditions: M14, 48 h
# MOLT-4 = assay: Cytotoxicity against human MOLT4 after 48 hrs by SRB assay; assay type: functional; conditions: MOLT-4, 48 h
# NCI/ADR-RES = assay: Cytotoxicity against human NCI/ADR-RES after 48 hrs by SRB assay; assay type: functional
# COLO 205 = assay: Cytotoxicity against human COLO205 after 48 hrs by SRB assay; assay type: functional; conditions: COLO 205, 48 h
# SK-OV-3 = assay: Cytotoxicity against human SKOV3 after 48 hrs by SRB assay; assay type: functional; conditions: SK-OV-3, 48 h
# IGROV-1 = assay: Cytotoxicity against human IGROV1 after 48 hrs by SRB assay; assay type: functional; conditions: IGROV-1, 48 h
# HCC 2998 = assay: Cytotoxicity against human HCC2998 after 48 hrs by SRB assay; assay type: functional; conditions: HCC 2998, 48 h
# SF-539 = assay: Cytotoxicity against human SF539 after 48 hrs by SRB assay; assay type: functional; conditions: SF-539, 48 h
# LOX IMVI = assay: Cytotoxicity against human LOXIMVI after 48 hrs by SRB assay; assay type: functional
# SK-MEL-5 = assay: Cytotoxicity against human SK-MEL-5 after 48 hrs by SRB assay; assay type: functional; conditions: SK-MEL-5, 48 h
# RXF 393 = assay: Cytotoxicity against human RXF393 after 48 hrs by SRB assay; assay type: functional; conditions: RXF 393, 48 h
# PC-3 = assay: Cytotoxicity against human PC3 after 48 hrs by SRB assay; assay type: functional; conditions: PC-3, 48 h
# [3] = biological target: Mineralocorticoid receptor (Homo sapiens, UniProt P08235); assay: Antagonist activity at mineralocorticoid receptor (unknown origin)
# [4] = read-out: LC50 (the source's name)
# Chain of Mineralocorticoid receptor (P08235 whole entry): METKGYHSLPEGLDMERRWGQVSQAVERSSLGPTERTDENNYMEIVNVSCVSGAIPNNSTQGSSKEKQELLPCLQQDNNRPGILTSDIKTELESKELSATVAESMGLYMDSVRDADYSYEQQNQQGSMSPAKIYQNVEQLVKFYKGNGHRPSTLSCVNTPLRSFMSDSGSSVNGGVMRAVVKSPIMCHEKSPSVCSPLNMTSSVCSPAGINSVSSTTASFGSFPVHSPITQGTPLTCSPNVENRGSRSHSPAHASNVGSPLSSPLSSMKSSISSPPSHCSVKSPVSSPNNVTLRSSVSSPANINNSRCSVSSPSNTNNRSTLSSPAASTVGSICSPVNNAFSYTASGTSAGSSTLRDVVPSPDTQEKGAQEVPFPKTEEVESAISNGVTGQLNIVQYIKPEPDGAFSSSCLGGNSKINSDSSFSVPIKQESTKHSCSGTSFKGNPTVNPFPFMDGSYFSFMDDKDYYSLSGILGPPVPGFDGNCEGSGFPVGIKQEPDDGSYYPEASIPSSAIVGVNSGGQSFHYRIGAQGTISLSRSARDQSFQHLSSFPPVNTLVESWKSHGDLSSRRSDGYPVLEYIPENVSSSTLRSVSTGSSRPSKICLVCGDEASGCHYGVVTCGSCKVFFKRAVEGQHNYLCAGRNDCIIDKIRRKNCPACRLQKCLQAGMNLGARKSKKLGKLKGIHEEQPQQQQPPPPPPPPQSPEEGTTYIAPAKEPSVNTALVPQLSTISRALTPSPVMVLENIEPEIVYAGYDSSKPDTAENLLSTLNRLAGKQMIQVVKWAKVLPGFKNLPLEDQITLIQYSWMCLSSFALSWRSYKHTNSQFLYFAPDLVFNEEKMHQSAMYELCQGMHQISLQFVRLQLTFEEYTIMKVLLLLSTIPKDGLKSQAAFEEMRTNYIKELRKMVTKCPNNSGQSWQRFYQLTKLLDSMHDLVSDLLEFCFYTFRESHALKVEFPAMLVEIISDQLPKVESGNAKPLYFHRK
smiles,measurement,setting,value
COc1cc(/C=C2\CN(C)CC3=C2Nc2nc(SC)[nH]c(=O)c2C3c2cc(OC)c(OC)c(OC)c2)cc(OC)c1OC (stereo not given),GI50,A498,9.58 µM
same,CC50,A498; [4],46.7 µM
same,GI50,NCI-H522,2.04 µM
same,CC50,NCI-H522; [4],15.5 µM
same,GI50,CAKI-1,2.15 µM
same,CC50,CAKI-1; [4],11.9 µM
same,GI50,SK-MEL-28,2.1 µM
same,CC50,SK-MEL-28; [4],8.79 µM
same,GI50,MCF7,4.98 µM
same,CC50,MCF7; [4],50 µM
same,GI50,KM12,1.7 µM
same,CC50,KM12; [4],6.08 µM
same,GI50,Malme-3M,2.82 µM
same,CC50,Malme-3M; [4],55.5 µM
same,GI50,SNB-75,7.36 µM
same,CC50,SNB-75; [4],57.8 µM
same,GI50,SF-295,2.24 µM
same,CC50,SF-295; [4],26.9 µM
same,GI50,MDA-MB-435,2.51 µM
same,CC50,MDA-MB-435; [4],39.8 µM
same,GI50,NCI-H322M,6.6 µM
same,CC50,NCI-H322M; [4],46.1 µM
same,GI50,A549,3.26 µM
same,CC50,A549; [4],62.5 µM
same,GI50,MDA-MB-468,2.2 µM
same,CC50,MDA-MB-468; [4],38.8 µM
same,GI50,HOP-92,3.4 µM
same,CC50,HOP-92; [4],53.4 µM
same,GI50,786-0,4.01 µM
same,CC50,786-0; [4],87.3 µM
same,GI50,HCT-116,1.66 µM
same,CC50,HCT-116; [4],6.05 µM
same,GI50,U-251,1.76 µM
same,CC50,U-251; [4],9.75 µM
same,GI50,[1],2.26 µM
same,CC50,[1]; [4],> 100 µM
same,GI50,SF-268,1.66 µM
same,CC50,SF-268; [4],6.96 µM
same,GI50,HCT-15,2.07 µM
same,CC50,HCT-15; [4],13.6 µM
same,GI50,NCI-H23,3.54 µM
same,CC50,NCI-H23; [4],> 100 µM
same,GI50,OVCAR-3,2.64 µM
same,CC50,OVCAR-3; [4],23.4 µM
same,GI50,SR,1.48 µM
same,CC50,SR; [4],> 100 µM
same,GI50,SN12C,2.98 µM
same,CC50,SN12C; [4],78.1 µM
same,GI50,MDA-MB-231,3.14 µM
same,CC50,MDA-MB-231; [4],50.3 µM
same,GI50,[2],8.44 µM
same,CC50,[2]; [4],> 100 µM
same,GI50,DU-145,3.6 µM
same,CC50,DU-145; [4],34.8 µM
same,GI50,T47D,3.69 µM
same,CC50,T47D; [4],> 100 µM
same,GI50,TK-10,6.07 µM
same,CC50,TK-10; [4],46.9 µM
same,GI50,UACC-257,2.24 µM
same,CC50,UACC-257; [4],29.1 µM
same,GI50,OVCAR-5,4.83 µM
same,CC50,OVCAR-5; [4],48.7 µM
same,GI50,SNB-19,8.65 µM
same,CC50,SNB-19; [4],50 µM
same,GI50,HOP-62,2.46 µM
same,CC50,HOP-62; [4],41.3 µM
same,GI50,SK-MEL-2,9.92 µM
same,CC50,SK-MEL-2; [4],> 100 µM
same,GI50,UO-31,1.57 µM
same,CC50,UO-31; [4],7.54 µM
same,GI50,NCI-H460,2.3 µM
same,CC50,NCI-H460; [4],> 100 µM
same,GI50,OVCAR-4,4.99 µM
same,CC50,OVCAR-4; [4],81 µM
same,GI50,BT-549,2.98 µM
same,CC50,BT-549; [4],29.5 µM
same,GI50,NCI-H226,6.17 µM
same,CC50,NCI-H226; [4],60.6 µM
same,GI50,HT-29,2.35 µM
same,CC50,HT-29; [4],16.3 µM
same,GI50,UACC-62,2.06 µM
same,CC50,UACC-62; [4],18.5 µM
same,GI50,OVCAR-8,2.89 µM
same,CC50,OVCAR-8; [4],> 100 µM
same,GI50,Hs-578T,8.88 µM
same,CC50,Hs-578T; [4],> 100 µM
same,GI50,SW-620,2 µM
same,CC50,SW-620; [4],9.69 µM
same,GI50,ACHN,1.93 µM
same,CC50,ACHN; [4],6.53 µM
same,GI50,M14,2.98 µM
same,CC50,M14; [4],50.9 µM
same,GI50,MOLT-4,2.92 µM
same,CC50,MOLT-4; [4],> 100 µM
same,GI50,NCI/ADR-RES,3.6 µM
same,CC50,NCI/ADR-RES; [4],> 100 µM
same,GI50,COLO 205,2.11 µM
same,CC50,COLO 205; [4],12.6 µM
same,GI50,SK-OV-3,3.07 µM
same,CC50,SK-OV-3; [4],51 µM
same,GI50,IGROV-1,3.1 µM
same,CC50,IGROV-1; [4],85.8 µM
same,GI50,HCC 2998,1.91 µM
same,CC50,HCC 2998; [4],6.9 µM
same,GI50,SF-539,3.64 µM
same,CC50,SF-539; [4],> 100 µM
same,GI50,LOX IMVI,1.66 µM
same,CC50,LOX IMVI; [4],9.37 µM
same,GI50,SK-MEL-5,2.83 µM
same,CC50,SK-MEL-5; [4],34.7 µM
same,GI50,RXF 393,1.81 µM
same,CC50,RXF 393; [4],6.61 µM
same,GI50,PC-3,3.63 µM
same,CC50,PC-3; [4],> 100 µM
CCOc1ncc(C)c2c1[C@H](c1ccc(C#N)cc1OC)C(C(N)=O)=C(C)N2 [FINERENONE],IC50,[3],0.018 µM
